Common to all, as to assay type: in vivo
Assay [1] deals with ducksalad (Heteranthera limosa). The assay can be described thus: Test B flooded paddy test. Conditions: Heteranthera limosa, Flood, 250 g ai/ha, read-out: Ducksalad plant response rating. The gist of the method:
(§1)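 Greenhouse paddy pots with 2-leaf stage plants received compound by direct addition to floodwater 3 cm deep, kept at that level. Scored visually at 13–15 d versus controls (0 no effect; 100 complete control).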

In the next assay the test system is rice (Oryra sativa). Description: Test B flooded paddy test. Conditions: Oryza sativa, Flood, 250 g ai/ha, read-out: Rice plant response rating. The gist of the method: as §1
Assay [2] concerns barnyardgrass (Echinochloa crus-galli). The assay can be described thus: Test B flooded paddy test. Conditions: Echinochloa crus-galli, Flood, 250 g ai/ha, read-out: Barnyardgrass plant response rating. The gist of the method: as §1
In assay [3] the test system is sedge, umbrella (small-flower umbrella sedge, Cyperus difformis). Description: Test B flooded paddy test. Conditions: Cyperus difformis, Flood, 250 g ai/ha, read-out: Sedge, Umbrella plant response rating. The gist of the method: as §1
Assay [4] relates to Galium (catchweed bedstraw, Galium aparine). Description: Test A postemergence. Conditions: Galium, post-emergence, 240 h, 125 g ai/ha, postemergence, visual injury rating after approximately 10 d; read-out: Galium plant response rating (0 to 100 scale, 0 no effect, 100 complete control). The method, boiled down:
(§2)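 Greenhouse, ~10 d after spray; visual injury vs untreated controls, 0 = no effect, 100 = complete control. Preemergence: directed soil spray over planted seeds. Postemergence: plants 2–10 cm, 1–2 leaf stage. Loam/sand blend. Compound in non-phytotoxic solvent with surfactant.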

In assay [5] the test system is barnyardgrass (Echinochloa crus-galli). Description: Test A postemergence. To be noted: Echinochloa crus-galli, post-emergence, 240 h, postemergence; for pest or weed control at 125 g/ha: 125 g ai/ha. The gist of the method: as §2
Assay [6] relates to pigweed (Amaranthus retroflexus). Description: Test A postemergence. Conditions: Amaranthus retroflexus, post-emergence, 240 h, postemergence; for pest or weed control at 125 g/ha: 125 g ai/ha. The gist of the method: as §2
The test system of assay [7] is wheat (Triticum aestivum). Description: Test A postemergence. Conditions: Triticum aestivum, post-emergence, 240 h, postemergence; for plant injury at 125 g/ha: 125 g ai/ha. The method, boiled down:
as §2

The next assay deals with Kochia (Kochia scoparia). Description: Test A postemergence. Conditions: Bassia scoparia, post-emergence, 240 h, postemergence; for pest or weed control at 125 g/ha: 125 g ai/ha. The gist of the method:
as §2

The test system of assay [8] is ragweed (common ragweed, Ambrosia elatior). The assay can be described thus: Test A postemergence. To be noted: Ambrosia artemisiifolia, post-emergence, 240 h, postemergence; for pest or weed control at 125 g/ha: 125 g ai/ha. The method, boiled down: as §2
The subject of another assay is corn (Zea mays). The assay can be described thus: Test A postemergence. Conditions: Zea mays, post-emergence, 240 h, postemergence; for plant injury at 125 g/ha: 125 g ai/ha. The gist of the method:
as §2

The test system of assay [9] is ryegrass, Italian (Italian ryegrass, Lolium multiflorum). Description: Test A postemergence. To be noted: Lolium multiflorum, post-emergence, 240 h, postemergence; for pest or weed control at 125 g/ha: 125 g ai/ha. The gist of the method: as §2
In assay [10] the test system is giant foxtail (Setaria faberii). The assay can be described thus: Test A postemergence. To be noted: Setaria faberi, post-emergence, 240 h, postemergence; for pest or weed control at 125 g/ha: 125 g ai/ha. The method, boiled down:
as §2

The subject of assay [11] is pigweed (Amaranthus retroflexus). The assay can be described thus: Test A preemergence. To be noted: Amaranthus retroflexus, pre-emergence, 240 h; for pest or weed control at 125 g/ha: 125 g ai/ha, 0 to 100 scale where 0 is no effect and 100 is complete control; for pest or weed control at 500 g/ha: 500 g ai/ha.
Assay [12] deals with blackgrass (Alopecurus myosuroides). Description: Test A postemergence. To be noted: Alopecurus myosuroides, post-emergence, 240 h, postemergence, read-out: Blackgrass plant response rating. The method, boiled down:
as §2

Setting [13] is: scale of 0 to 100 where 0 is no effect and 100 is complete control.
Setting [14] is: visual injury rating after approximately 10 d, read-out: Barnyardgrass plant response rating (0 to 100 scale, 0 no effect, 100 complete control).
[15] abbreviates: visual injury rating after approximately 10 d, read-out: Pigweed plant response rating (0 to 100 scale, 0 no effect, 100 complete control).
Where [16] appears, read: visual injury rating after approximately 10 d, read-out: Wheat plant response rating (0 to 100 scale, 0 no effect, 100 complete control).
[17] abbreviates: visual injury rating after approximately 10 d, read-out: Kochia plant response rating (0 to 100 scale, 0 no effect, 100 complete control).
Setting [18] is: visual injury rating after approximately 10 d, read-out: Ragweed plant response rating (0 to 100 scale, 0 no effect, 100 complete control).
Where [19] appears, read: visual injury rating after approximately 10 d, read-out: Corn plant response rating (0 to 100 scale, 0 no effect, 100 complete control).
Where [20] appears, read: visual injury rating after approximately 10 d, read-out: Ryegrass, Italian plant response rating (0 to 100 scale, 0 no effect, 100 complete control).
[21] abbreviates: visual injury rating after approximately 10 d, read-out: Foxtail, Giant plant response rating (0 to 100 scale, 0 no effect, 100 complete control).
[22] abbreviates: preemergence, read-out: Pigweed plant response rating.
The mark [23] stands for this setting: Preemergence, visual injury vs untreated controls after approximately 10 d, read-out: Pigweed plant response rating (0 to 100 scale where 0 is no effect and 100 is complete control).
Where [24] appears, read: 0 to 100 scale where 0 is no effect and 100 is complete control.

Like-named read-outs stand apart in the source and are kept apart here.

As for `O=C1NC[C@H](c2cc(F)c(C(F)(F)F)c(F)c2)[C@H]1C(=O)Nc1ccc(F)cc1F` [Compound 840], the pest or weed control at 250 g/ha in assay [1] (setting [13]) came to 80%; in the assay with rice (Oryra sativa) (setting [13]), 0%; in [2] (setting [13]) it was 0%; in assay [3] (setting [13]), 0%. The pest or weed control at 125 g/ha in [4] came out at 50%; in assay [5] (setting [14]), 80%; in assay [6] (setting [15]) it was 0%; with Kochia (Kochia scoparia) (setting [17]) it was 0%; in [8] (setting [18]), 0%; in assay [9] (setting [20]) it was 0%. The pest or weed control at 125 g/ha in assay [10] (setting [21]) came to 90%; in [11] (setting [22]), 30%. Besides, the figures for the plant injury at 125 g/ha (in assay [7] (setting [16]); in the assay on corn (Zea mays) (setting [19])) were 20% and 30%, respectively. Besides, the pest or weed control at 500 g/ha in [11] (setting [23]) came out at 60%.

`CCOc1ccc([C@H]2CNC(=O)[C@@H]2C(=O)Nc2ccccc2F)cc1` [Compound 906]: the pest or weed control at 250 g/ha (in assay [1] (setting [13]); with rice (Oryra sativa) (setting [13]); in assay [2] (setting [13]); in assay [3] (setting [13])) was 0% in each case. Moreover, the pest or weed control at 125 g/ha (in [4]; in assay [5] (setting [14]); in assay [6] (setting [15]); in the assay on Kochia (Kochia scoparia) (setting [17]); in assay [8] (setting [18]); in assay [9] (setting [20])) was 0% in each case. The pest or weed control at 125 g/ha in assay [10] (setting [21]) and in [11] (setting [22]) was 0% in each case. The plant injury at 125 g/ha (in assay [7] (setting [16]); in the assay with corn (Zea mays) (setting [19])) was 0% each time. The pest or weed control at 500 g/ha in assay [11] (setting [23]) was determined as 0%.

Turning to `Cc1ccc([C@H]2CNC(=O)[C@]2(Br)C(=O)Nc2cccc(F)c2F)cc1F` (racemic) [Compound 1073], the pest or weed control at 250 g/ha was determined as 100% in [1] (setting [24]), 15% with rice (Oryra sativa) (setting [24]), 55% in [2] (setting [24]) and 0% in assay [3] (setting [24]). The pest or weed control at 125 g/ha in assay [5] (visual injury on 0 to 100 scale (0 no effect, 100 complete control), approx. 10 d, read-out: Barnyardgrass plant response rating) was 70%; in assay [6] (visual injury on 0 to 100 scale (0 no effect, 100 complete control), approx. 10 d, read-out: Pigweed plant response rating) it was 0%; in assay [12] (125 g ai/ha, visual injury on 0 to 100 scale (0 no effect, 100 complete control), approx. 10 d) it was 0%; in the assay with Kochia (Kochia scoparia) (visual injury on 0 to 100 scale (0 no effect, 100 complete control), approx. 10 d, read-out: Kochia plant response rating) it was 0%; in assay [8] (visual injury on 0 to 100 scale (0 no effect, 100 complete control), approx. 10 d, read-out: Ragweed plant response rating), 30%; in [9] (visual injury on 0 to 100 scale (0 no effect, 100 complete control), approx. 10 d, read-out: Ryegrass, Italian plant response rating), 0%. For the same compound, the pest or weed control at 125 g/ha in [10] (visual injury on 0 to 100 scale (0 no effect, 100 complete control), approx. 10 d, read-out: Foxtail, Giant plant response rating) turned out to be 0%; in assay [11] (preemergence, approx. 10 d, read-out: Pigweed plant response rating), 100%. Further, the pest or weed control at 500 g/ha in [5] (500 g ai/ha, 0 to 100 scale, 0 is no effect, 100 is complete control, read-out: Barnyardgrass plant response rating) is 90%; in assay [6] (500 g ai/ha, 0 to 100 scale, 0 is no effect, 100 is complete control, read-out: Pigweed plant response rating), 20%; in assay [12] (500 g ai/ha, 0 to 100 scale, 0 is no effect, 100 is complete control), 30%; in the assay with Kochia (Kochia scoparia) (500 g ai/ha, 0 to 100 scale, 0 is no effect, 100 is complete control, read-out: Kochia plant response rating), 40%; in assay [8] (500 g ai/ha, 0 to 100 scale, 0 is no effect, 100 is complete control, read-out: Ragweed plant response rating), 30%; in [9] (500 g ai/ha, 0 to 100 scale, 0 is no effect, 100 is complete control, read-out: Ryegrass, Italian plant response rating), 40%. The pest or weed control at 500 g/ha in assay [10] (500 g ai/ha, 0 to 100 scale, 0 is no effect, 100 is complete control, read-out: Foxtail, Giant plant response rating) stood at 40%; in assay [11] (preemergence, visual injury rating about 10 d after treatment, 0 to 100 scale (0 no effect, 100 complete control), read-out: Pigweed plant response rating) it was 100%. Further, the plant injury at 125 g/ha in assay [7] (visual injury on 0 to 100 scale (0 no effect, 100 complete control), approx. 10 d, read-out: Wheat plant response rating) was found to be 0%; in the assay with corn (Zea mays) (visual injury on 0 to 100 scale (0 no effect, 100 complete control), approx. 10 d, read-out: Corn plant response rating) it was 20%. In addition, the plant injury at 500 g/ha in [7] (500 g ai/ha, 0 to 100 scale, 0 is no effect, 100 is complete control, read-out: Wheat plant response rating) came out at 30%; in the assay with corn (Zea mays) (500 g ai/ha, 0 to 100 scale, 0 is no effect, 100 is complete control, read-out: Corn plant response rating) it was 50%.
